Source: PMC9131456, “Structure-Based Discovery of Lipoteichoic Acid Synthase Inhibitors” (Journal of Chemical Information and Modeling, 2022)

How the values were obtained:
[1] = system: S. aureus (strain Newman); experiment: Antimicrobial microdilution broth assay (growth inhibition); type: cell-based; conditions: S. aureus strain Newman growth, OD600nm after 20 h at 37 °C, MH2 broth, mean ± s.e.m., n = 3
Experimental: All the compounds tested in this study were dissolved in dimethyl sulfoxide (DMSO) at an initial stock concentration of 20 mM and stored at −20 °C. These compounds were tested for their antimicrobial activity using the microdilution broth method[66] following the protocol described by Richter et al.[30] Briefly, overnight cultures of S. aureus (strain Newman) grown at 37 °C in cation-adjusted Mueller Hinton II (MH2) broth were adjusted to an OD600nm of 0.6 before back-diluted with a factor of 1:2000 with the same broth. After that, 200 μL of the diluted bacterial culture were dispensed into each well of 96-well plates supplemented with the compounds to the desired concentrations. The plates were then sealed with a moisture membrane barrier and incubated statically for 20 h at 37 °C. After that, the OD600nm values of the cultures in each well were measured using a CLARIOstar microplate reader (BMG Labtech). The procedures for the potentiation assays were by large the same as described above with some variations. In such assays, MRSA strain COL was grown in the 96-well plates supplemented with different concentrations of compound 9 with methicillin, carbenicillin, or polymyxin B in a checkerboard format. Their synergistic effects were quantified by OD600nm measurements using a CLARIOstar microplate reader (BMG Labtech).

[2] = system: LTA production in S. aureus (strain RN4220); experiment: Western blot (immunoblotting) of LTA in S. aureus cell extracts; type: cell-based; conditions: for LTA production: Western blot of S. aureus cell extracts, 10 μM in Figure S14, 100 μM for compound 8
Experimental: The procedures of LTA detection using Western Blot had previously been reported by Gründling et al.[52] To determine the effect of the compounds on LTA production, 10 mL cultures of S. aureus (strain RN4220) in MH2 broth were incubated in an orbital shaker at 37 °C with either the compounds or DMSO. When the control cultures had reached an OD600nm ∼ 1, the bacteria were pelleted and the OD600nm of the cultures normalized by resuspension with the appropriate amount of MH2 broth. Subsequently, 1 mL from each cultures was mixed with 0.5 mL of 0.1 mm glass beads, and the bacteria were lyzed by vortexing at 4 °C for 45 min. After lysis, glass beads were removed by centrifugation at 200g, and the supernatants were transferred to a new tube. The membrane-associated LTA from each culture were pelleted by an additional centrifugation step of the supernatant at 16,000g for 15 min before resuspension in 30 μL of 2× SDS. The samples were boiled at 80 °C for 20 min, and the solubilized fractions were loaded onto 15% SDS-polyacrylamide gels prior to electrophoresis at 120 V for 1.5 h. The LTA on the gels were electrotransferred onto FL-immobilon PVDF membranes at 25 V for another 1.5 h. After the electrotransfer, the membranes were blocked with 5% skimmed milk for 1 h and incubated with the antimouse LTA antibody (clone G43J, Thermo Fisher Scientific; 1:1000 dilution) overnight at 4 °C. After washing, the membranes were incubated with antimouse IRDye 680RD (1:10,000 dilution) for 1 h, washed, and visualized using the Odyssey CLx Imaging System.

HEK293 cells = experiment: LDH release cytotoxicity assay; type: cell-based, human; conditions: 200 μM compound, 24 h
Experimental: The human embryonic kidney (HEK293) cells were maintained in Dulbecco’s modified Eagle medium (DMEM) supplemented with 10% fetal bovine serum and 100 units/mL of penicillin–streptomycin. For the cell viability assays, cells were seeded onto 96-well plates at a density of 4 × 10^4 cells/well and grown at 37 °C at 5% CO2. After incubating the cells for 24 h, the culture media were replaced with fresh DMEM supplemented with 200 μM of the compounds 1771, compound 4, compound 8, and compound 9 and incubated further for an additional 24 h. The cytotoxicity of these drugs was measured using the LDH Cytotoxicity Assay Kit according to the manufacturer’s instruction (Thermo Scientific). The absorbance at 490 nm was measured with a CLARIOstar microplate reader (BMG Labtech), and the reference wavelength was set at 630 nm.

IsaA = experiment: SDS-PAGE and LC/MS-MS analysis of the lysate of treated S. aureus; type: cell-based; conditions: S. aureus treated with 100 μM compound, SDS-PAGE
LTA synthase (LtaS) = system: LTA synthase (LtaS); design: method as in PMID 23401520; conditions: by inhibiting LtaS; cited from earlier work
[3] = system: S. aureus (strain Newman); experiment: Non-lethal S. aureus lung infection mouse model; type: in vivo, BALB/c female mice; conditions: 300 μg intranasally, infected BALB/c mice
Excerpt: All in vivo experiments were done at the University of Liverpool under the UK Animals (Scientific Procedures) Act 1986 guidelines. The protocols were approved by the UK Home Office and by the University of Liverpool Animal Welfare and Ethics Committee. Six to eight week old BALB/c female mice (Charles River, UK) were used in the study after being left to acclimatize for a minimum of 7 days prior to experimentation. Mice were intranasally infected with 5 × 10^7 CFU of the S. aureus (strain Newman) in 50 μL of sterile phosphate-buffered saline (PBS). The bacterial dose was prepared by incubating 50 μL of an overnight culture in brain heart infusion (BHI) broth (Oxoid, Thermo Fisher Scientific, UK) into 5 mL of fresh BHI. Once the culture reached an OD600 = 2–3, the bacterial numbers were adjusted to the desired dose using sterile PBS. Three hours postinfection, mice were intranasally treated with either 50 μL of sterile PBS (control) or with 300 μg of compounds 1771 and compound 4 dissolved in 50 μL of sterile PBS. The final DMSO concentration was 5%, and the PBS control also contained 5% DMSO. Mice were culled 24 h postinfection; lungs were collected, homogenized, and serially diluted to determine CFU counts.[70] Significant differences were determined using the unpaired two-tailed Student t-test (p = 0.0013).

[4] = design: method as in PMID 23401520; conditions: lethal sepsis mouse model; cited from earlier work
His416Ala eLtaS = molecular target: T1, His416Ala eLtaS (Staphylococcus aureus, UniProt Q2G093, H416A); experiment: Isothermal titration calorimetry, His416Ala eLtaS; type: binding, S. aureus; conditions: ITC, compared with wild-type eLtaS
T1 construct: LtaS is a transmembrane protein with a large extracellular catalytic domain (denoted as eLtaS); His-tag; made in house; host or cells: E. coli Rosetta 2 (DE3), pET19m
Excerpt: (§1) The plasmid [Rosetta pProEX-eLtaS] from E coli strain ANG571 was extracted using the QIAprep Spin Miniprep Kit. Meanwhile, the genes encoding the mutant LtaS with mutations His416Ala, His347Ala, and Arg356Ala were extracted from the strains ANG1115, ANG1175, and ANG1178, respectively, using the QIAamp DNA Mini Kit. These genes were amplified using PCR, cut with NdeI/BamHI, and ligated into a pET19m transformed into E. coli Rosetta 2 (DE3) strain.
(§2) Each of the eLtaS proteins were purified from 6 L of E. coli cultures that were grown with aeration in LB medium supplemented with 200 μg/mL of carbenicillin and 34 μg/mL of chloramphenicol at 37 °C. When the cultures reached an OD600nm of about 0.6, protein expression was induced with 1 mM IPTG final concentration at 21 °C overnight. […] All four eLtaS proteins were subjected to circular dichroism analysis, and their exact masses were determined using MS.
(§3) The thawed eLtaS proteins were dialyzed using D-Tube Dialyzer Mini (EMD Millipore) in 20 mM Trizma-HCl pH 7.5, 100 mM NaCl with Chelex 100 (Sigma-Aldrich) for 1.5 h twice on the same day prior to the ITC experiments. […] Data were first analyzed in NITPIC[69] for baseline calculations and then fit for thermodynamic parameters using the OneSite model in Origin 7.0 software.

His347Ala eLtaS = molecular target: T2, His347Ala eLtaS (Staphylococcus aureus, UniProt Q2G093, H347A); experiment: Isothermal titration calorimetry, His347Ala eLtaS; type: binding, S. aureus; conditions: ITC, compared with wild-type eLtaS
T2 construct: LtaS is a transmembrane protein with a large extracellular catalytic domain (denoted as eLtaS); His-tag; made in house; host or cells: E. coli Rosetta 2 (DE3), pET19m
Excerpt: as §1, §2, §3

Arg356Ala eLtaS = molecular target: T3, Arg356Ala eLtaS (Staphylococcus aureus, UniProt Q2G093, R356A); experiment: Isothermal titration calorimetry, Arg356Ala eLtaS; type: binding, S. aureus; conditions: ITC, compared with wild-type eLtaS
T3 construct: LtaS is a transmembrane protein with a large extracellular catalytic domain (denoted as eLtaS); His-tag; made in house; host or cells: E. coli Rosetta 2 (DE3), pET19m
Excerpt: as §1, §2, §3

wild-type eLtaS = molecular target: T4, wild-type eLtaS (Staphylococcus aureus, UniProt Q2G093); experiment: Isothermal titration calorimetry, wild-type eLtaS; type: binding, S. aureus; conditions: ITC, 25 °C, wild-type eLtaS titrated into 10 μM inhibitor
T4 construct: LtaS is a transmembrane protein with a large extracellular catalytic domain (denoted as eLtaS); His-tag; made in house; host or cells: E. coli (Rosetta; plasmid pProEX-eLtaS from strain ANG571)
Experimental: Each of the eLtaS proteins were purified from 6 L of E. coli cultures that were grown with aeration in LB medium supplemented with 200 μg/mL of carbenicillin and 34 μg/mL of chloramphenicol at 37 °C. When the cultures reached an OD600nm of about 0.6, protein expression was induced with 1 mM IPTG final concentration at 21 °C overnight. Later, the bacteria were harvested by centrifugation at 11,899g, and the bacterial pellets were resuspended with lysis buffer (50 mM Trizma-HCl, pH 7.5, 300 mM NaCl, 5% glycerol, 10 mM imidazole, 5 mM β-mercaptoethanol). The bacterial pellets were lyzed by three passages through a high-pressure emulsifier, and the lysates were centrifuged at 47,596g for 30 min at 4 °C. The resulting supernatants containing the His-tagged eLtaS proteins were filtered with a 0.22 μm filter before being loaded onto a 5 mL Ni-NTA column using an ÄKTApure protein purification system. The bound proteins were subsequently washed with lysis buffer, eluted using the elution buffer (50 mM Trizma-HCl, pH 7.5, 300 mM NaCl, 5% glycerol, and 300 mM imidazole), and dialyzed twice using the dialysis buffer [25 mM Trizma-HCl, pH 7.5, 100 mM NaCl, 10% glycerol, 1 mM ethylenediaminetetraacetic acid (EDTA)]. After dialysis, protein purity was confirmed to be >90% using SDS-PAGE. Proteins were then concentrated, snap-frozen in liquid N2, and stored at −80 °C prior to usage. All four eLtaS proteins were subjected to circular dichroism analysis, and their exact masses were determined using MS.
The thawed eLtaS proteins were dialyzed using D-Tube Dialyzer Mini (EMD Millipore) in 20 mM Trizma-HCl pH 7.5, 100 mM NaCl with Chelex 100 (Sigma-Aldrich) for 1.5 h twice on the same day prior to the ITC experiments. After dialysis, the eLtaS proteins were centrifuged at 20,000g at 10 °C for 10 min. The supernatants were transferred to new microcentrifuge tubes and diluted to 100 μM using the same buffer as above with an addition of 0.1% (v/v) DMSO. Meanwhile, the eLtaS inhibitors were diluted to 10 μM using the same buffer and maintaining 0.1% (v/v) DMSO. The eLtaS proteins were titrated into the main cell containing the inhibitors using a VP-ITC at 25 °C. The injection parameters were set as follows: a reference power of 15 μcal/s, an initial injection of 3 μL over a duration of 3.6 s, and then subsequent injections of 10 μL over a duration of 12 s. All injections were spaced with 240 s with a filter period of 2 s. Data were first analyzed in NITPIC[69] for baseline calculations and then fit for thermodynamic parameters using the OneSite model in Origin 7.0 software.

[5] = Staphylococcus aureus, NEWMAN, 20 h

COc1ccccc1Nc1ncccc1C(=O)OCC(=O)Nc1nnc(-c2ccccc2)o1 [Compound 2]
IC50 [1]: 12.3 ± 0.38 µM

Cc1csc(SCc2ccccc2C(=O)OCC(=O)Nc2nnc(-c3ccccc3)o2)n1 [Compound 3]
LTA production [2]: able to reduce LTA production
IC50 [1]: 13.4 ± 0.35 µM

O=C(COC(=O)CSC(c1ccccc1)c1ccccc1)Nc1nnc(-c2ccccc2)o1 [Compound 5]
IC50 [1]: 17.5 ± 1.08 µM

Cc1cccc(COc2ccccc2C(=O)OCC(=O)Nc2nnc(-c3ccccc3)o2)c1 [Compound 6]
LTA production [2]: able to reduce LTA production
IC50 [1]: 11.1 ± 0.49 µM

O=C(COC(=O)/C=C/c1ccc2ccccc2n1)Nc1nnc(-c2ccccc2)o1 [Compound 7]
IC50 [1]: 12.4 ± 1.9 µM

O=C(Nc1ccc(Oc2ccc(NC(=O)Nc3ccc([N+](=O)[O-])cc3)cc2)cc1)Nc1ccc([N+](=O)[O-])cc1 [Compound 8]
LTA production [2]: did not decrease LTA production
electrophoretic mobility of the LTA extracted from treated S. aureus ([2]; Western blot, 100 μM compound): decreased electrophoretic mobility and higher heterogeneity
IC50 [1]: 29.4 µM
IC50 [1, 5]: 29.4 µM
cytotoxicity (LDH release) (HEK293 cells): cytotoxic
protein upregulation in the lysate (IsaA, a peptidoglycan hydrolase) (IsaA): upregulated a 24 kDa protein

O=C(COC(=O)Cc1coc2ccc3ccccc3c12)Nc1nnc(-c2ccccc2)o1 [compound 1771]
LTA synthesis (LTA synthase (LtaS)): able to suppress LTA synthesis
tolerability in mice [3]: did not tolerate the latter well
in vivo stability [4]: lost activity over time due to in vivo instability
survival of infected mice [4]: temporarily prolong the survival of the infected mice
IC50 [1]: 14.9 ± 1.59 µM
IC50 [1, 5]: 14.5 µM
binding affinity to the His416Ala eLtaS variant (His416Ala eLtaS): slight increase in binding affinities
binding to the His347Ala eLtaS variant (His347Ala eLtaS): abolished
binding affinity to the Arg356Ala eLtaS variant (Arg356Ala eLtaS): slight increase in binding affinities
Kd (wild-type eLtaS): 0.457 ± 0.0071 µM
